Test results reported in ChEMBL document CHEMBL4196204, “Sulfonic Acid-Containing Flavonoids from the Roots of Phyllanthus acidus” (J Nat Prod, 2018).
Calls of active or inactive are those of the source. The rule behind the calls is not given here.

Experiments:
HepG2 = experiment: Antiproliferative activity against human HepG2 cells by MTT assay; type: functional, cell-based
MCF7 = experiment: Antiproliferative activity against human MCF7 cells by MTT assay; type: functional, cell-based

Question: How did the Activity (HepG2) turn out when `COc1c(O)c2c(c(S(=O)(=O)O)c1O)OC(c1ccc(O)cc1)CC2=O` (racemic) was run?
Answer: inactive

Question: And the Activity (MCF7)?
Answer: inactive
